US20120077836A1, “METHODS OF ADMINISTERING (4AR,10AR)-1-N-PROPYL-1,2,3,4,4A,5,10,10A-OCTAHYDROBENZO [G] QUINOLINE-6,7-DIOL AND RELATED COMPOUNDS ACROSS THE ORAL MUCOSA, THE NASAL MUCOSA OR THE SKIN AND PHARMACEUTICAL COMPOSITIONS THEREOF” (priority 2009, published 2012)
Counter-ions that a name gives are not always drawn. Like-named read-outs stand apart in the source and are kept apart here.

Tested on: unilaterally lesioned 6-OHDA rats
Format: in vivo, rat
Experimental: Animals were generated as described under example 7. Four groups of animals were dosed with various doses of compound 10 (group 1, 1 microg/kg; group 2, 10 microg/kg; group 3, 25 microg/kg; group 4, 50 microg/kg). In all cases, compound 10 was administered in one of the nostrils in a volume of 20 microL of a solution of the appropriate concentration in 20% ethanol in 0.7% aqueous sodium chloride containing 0.02% ascorbic acid. The drug solution was applied to one of the nostrils and the nose was gently massaged to ensure distribution of the administered solution over the nasal mucosa. The degree of rotation behaviour of the animals was recorded over the next 3 hours.

For `CCCN1CCC[C@@H]2Cc3c(ccc(O)c3O)C[C@H]21` [compound 10, (4aR,10aR)-1-n-Propyl-1,2,3,4,4a,5,10,10a-octahydro-benzo[g]quinoline-6,7-diol hydrobromide], the “mean number of rotations (0-3 h)” value (group 1, intranasal 1 microg/kg) was 401, the “mean number of rotations (0-3 h)” value (group 2, intranasal 10 microg/kg) was 691 and the “mean number of rotations (0-3 h)” value (group 3, intranasal 25 microg/kg) was 1286. The “mean number of rotations (0-3 h)” value (group 4, intranasal 50 microg/kg) was 2122.
